Reference: PubChem BioAssay (NCI)
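Compound exposure: 48 hours, 5 concentrations, 96-well plates. TGI: concentration producing complete growth inhibition.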

Columns and labels:
Experiment in all cases: growth of human tumour cells (NCI), 48 h
MDA-MB-435 = test system: MDA-MB-435
MALME-3M melanoma = test system: MALME-3M melanoma
NCI-H23 lung = test system: NCI-H23 lung
SK-MEL-5 melanoma = test system: SK-MEL-5 melanoma
KM12 colon = test system: KM12 colon
SF-268 CNS = test system: SF-268 CNS
SN12C renal = test system: SN12C renal
NCI/ADR-RES ovarian = test system: NCI/ADR-RES ovarian
U251 CNS = test system: U251 CNS
MDA-MB-231 breast = test system: MDA-MB-231 breast
UO-31 renal = test system: UO-31 renal
M14 melanoma = test system: M14 melanoma
UACC-257 melanoma = test system: UACC-257 melanoma
MDA-N = test system: MDA-N
MOLT-4 leukemia = test system: MOLT-4 leukemia
BT-549 breast = test system: BT-549 breast
SNB-75 CNS = test system: SNB-75 CNS
RXF 393 renal = test system: RXF 393 renal
SR leukemia = test system: SR leukemia
T-47D breast = test system: T-47D breast

Measured: TGI

Cc1cc(N(CCOS(C)(=O)=O)CCOS(C)(=O)=O)ccc1C=O
60.5 µM: NCI/ADR-RES ovarian
28.1 µM: MALME-3M melanoma
28.8 µM: MDA-MB-435
48 µM: UACC-257 melanoma
67.4 µM: U251 CNS
11.6 µM: SN12C renal
35.1 µM: UO-31 renal
36.9 µM: NCI-H23 lung
26.4 µM: MDA-N
14.8 µM: MOLT-4 leukemia
54.6 µM: KM12 colon
30.5 µM: M14 melanoma
> 100 µM: SK-MEL-5 melanoma | SF-268 CNS | BT-549 breast
94.6 µM: MDA-MB-231 breast

CSc1nsc(-c2ccccc2)[s+]1
not listed: MDA-MB-435 | NCI-H23 lung | NCI/ADR-RES ovarian | MDA-MB-231 breast | MDA-N | BT-549 breast | T-47D breast
> 100 µM: all other assays above

CN(C)c1ccc(C(=N/N=C2\C(=O)Nc3ccccc32)c2ccc(N(C)C)cc2)cc1
13.9 µM: SK-MEL-5 melanoma
> 52.1 µM: MALME-3M melanoma
35.5 µM: T-47D breast
26.8 µM: SR leukemia
3.59 µM: NCI/ADR-RES ovarian
> 83.8 µM: UACC-257 melanoma
52.7 µM: MOLT-4 leukemia
46.8 µM: SN12C renal
30.8 µM: UO-31 renal
15.5 µM: U251 CNS
33.1 µM: KM12 colon
38.6 µM: BT-549 breast
1.21 µM: SNB-75 CNS
14.4 µM: M14 melanoma
29.2 µM: SF-268 CNS
0.0567 µM: MDA-MB-435
31.1 µM: NCI-H23 lung
1.23 µM: RXF 393 renal
13.1 µM: MDA-MB-231 breast

O=C(Nc1nccs1)c1c(O)nc2sccn2c1=O
not listed: UACC-257 melanoma | BT-549 breast
> 10 µM: all other assays above

COc1cc(C2c3cc4c(cc3OC(NN)C2C)OCO4)cc(OC)c1OC (stereo unspecified)
> 91.1 µM: MDA-MB-231 breast
> 26.8 µM: SK-MEL-5 melanoma
> 75.2 µM: SNB-75 CNS
16.2 µM: U251 CNS
not listed: MDA-MB-435 | SR leukemia
> 100 µM: all other assays above

CCCCCCOc1ccc(C(=O)NOC)cc1
not listed: MALME-3M melanoma | T-47D breast
> 100 µM: all other assays above

COc1cc(/C=C/C(=O)CC(=O)/C=C/c2ccc(OC(=O)CCCCC3CCSS3)c(OC)c2)ccc1OC(=O)CCCCC1CCSS1 (stereo unspecified)
not listed: SR leukemia | T-47D breast
> 100 µM: all other assays above

c1c[nH]c(-c2ccc(-c3ccc[nH]3)c3nsnc23)c1
> 84.8 µM: MDA-MB-231 breast
> 63 µM: M14 melanoma
> 74.7 µM: UO-31 renal
> 93.2 µM: NCI/ADR-RES ovarian
> 66.8 µM: RXF 393 renal
> 45.8 µM: MOLT-4 leukemia
> 85.8 µM: SNB-75 CNS
> 66.5 µM: U251 CNS
> 70.9 µM: MDA-MB-435
79.6 µM: NCI-H23 lung
not listed: MALME-3M melanoma | SR leukemia | T-47D breast
> 100 µM: all other assays above

CCCC(=O)OC1CC(n2cc(F)c(=O)[nH]c2=O)OC1COP(=O)(OCC(Cl)(Cl)Cl)OCC(Cl)(Cl)Cl (stereo unspecified)
> 78.8 µM: U251 CNS
99.4 µM: SR leukemia
> 31.6 µM: T-47D breast | SF-268 CNS | NCI/ADR-RES ovarian | M14 melanoma | MDA-N
> 92 µM: UACC-257 melanoma
> 62.1 µM: MOLT-4 leukemia
76.6 µM: SNB-75 CNS
not listed: BT-549 breast | RXF 393 renal
> 100 µM: all other assays above

CCCSCC(P(=O)(O)O)P(=O)(O)O
not listed: MDA-MB-435 | MDA-MB-231 breast | M14 melanoma | MDA-N | BT-549 breast | SR leukemia | T-47D breast
> 100 µM: all other assays above

CC1=NN(c2cccc(Cl)c2)C2(SCC(=O)N2c2nc3ccccc3s2)/C1=C\c1ccccc1O (stereo unspecified)
67.9 µM: MDA-MB-231 breast
60.2 µM: MDA-MB-435
32.3 µM: SK-MEL-5 melanoma
32.8 µM: RXF 393 renal
53.5 µM: U251 CNS
53.4 µM: MDA-N
37.5 µM: SR leukemia
64.7 µM: SF-268 CNS
45.1 µM: KM12 colon
> 100 µM: UACC-257 melanoma
55.4 µM: M14 melanoma
41.3 µM: NCI-H23 lung
55.5 µM: NCI/ADR-RES ovarian
42.3 µM: MOLT-4 leukemia
38.5 µM: UO-31 renal
37.9 µM: T-47D breast

CS(=O)(=O)OCC(CCl)(CCl)CCl
not listed: MALME-3M melanoma | BT-549 breast
> 100 µM: all other assays above

O=c1[nH]c(Nc2nc3ccccc3[nH]2)nc(O)c1-c1ccccc1
not listed: KM12 colon | MOLT-4 leukemia | T-47D breast
> 100 µM: all other assays above

CSC(=S)N/N=C(\C)c1ccc(S(=O)(=O)N(C)c2ccccc2)cc1
22.5 µM: MALME-3M melanoma
not listed: SK-MEL-5 melanoma | BT-549 breast
> 100 µM: all other assays above

CCN(CC)CCN(C(=Nc1ccccc1)N1CCOCC1)c1ccccc1
not listed: MDA-N
> 100 µM: all other assays above

CN(C)c1ccc(S(=O)Nc2ccccc2)cc1 (stereo unspecified)
50.7 µM: SK-MEL-5 melanoma
65.6 µM: T-47D breast
57.5 µM: MDA-MB-435
57.1 µM: KM12 colon
62.9 µM: U251 CNS
92.9 µM: UACC-257 melanoma
28.9 µM: BT-549 breast
not listed: MDA-N | SNB-75 CNS | RXF 393 renal
> 100 µM: all other assays above

CCOC(=O)Cn1c(=O)c2nc(SC)sc2n(-c2ccccc2)c1=O
not listed: MDA-MB-435 | SF-268 CNS | NCI/ADR-RES ovarian | T-47D breast
> 100 µM: all other assays above

O=C(CC(C(=O)c1ccsc1)c1ccc2c(c1)OCO2)c1ccccc1 (stereo unspecified)
63.1 µM: NCI-H23 lung
not listed: MALME-3M melanoma | MDA-MB-231 breast | BT-549 breast
> 100 µM: all other assays above

O=c1c2sc(=S)n(-c3ccc(F)cc3)c2ncn1/N=C/c1ccc(F)cc1F
41.6 µM: MALME-3M melanoma
53.4 µM: MDA-MB-231 breast
67.4 µM: M14 melanoma
52 µM: U251 CNS
37.5 µM: BT-549 breast
32.8 µM: SNB-75 CNS
89.8 µM: UO-31 renal
43.1 µM: SF-268 CNS
45.5 µM: RXF 393 renal
not listed: MOLT-4 leukemia | T-47D breast
> 100 µM: all other assays above

CN(C)C1(N(C)C)Oc2c(c(=O)n(C)c(=O)n2C)C(c2ccc(Br)cc2)C1(F)F (stereo unspecified)
not listed: MALME-3M melanoma | SN12C renal | MDA-N | SR leukemia
> 100 µM: all other assays above

CC1CCC(C(=O)O)(C(Br)C(=O)O)CC1 (stereo unspecified)
not listed: MALME-3M melanoma | SF-268 CNS | T-47D breast
> 100 µM: all other assays above

Cc1ccc(-c2[nH]c(=O)n(C3OC(CO)C(O)C(O)C3O)c(=O)c2C#N)cc1 (stereo unspecified)
not listed: MALME-3M melanoma | MDA-N
> 100 µM: all other assays above

CCOC(=O)c1c(C)nc2c3ccccc3c(C#N)c(C)n12
46.5 µM: MDA-MB-231 breast
75.8 µM: SNB-75 CNS
not listed: MALME-3M melanoma | NCI-H23 lung | SF-268 CNS | M14 melanoma | MDA-N | T-47D breast
> 100 µM: all other assays above

[O-][n+]1ccccc1Sc1nc(Sc2cccc[n+]2[O-])nc(Sc2cccc[n+]2[O-])n1
18.6 µM: SNB-75 CNS
4.15 µM: MDA-MB-435
3.07 µM: SK-MEL-5 melanoma
3.25 µM: UO-31 renal
4.96 µM: BT-549 breast
2.23 µM: RXF 393 renal
6.23 µM: UACC-257 melanoma
3.06 µM: M14 melanoma
3.88 µM: KM12 colon
4.06 µM: MALME-3M melanoma
29.1 µM: NCI/ADR-RES ovarian
3.48 µM: SN12C renal
3.87 µM: NCI-H23 lung
10.1 µM: SF-268 CNS
8.85 µM: T-47D breast
3.3 µM: U251 CNS
2.97 µM: SR leukemia
2.73 µM: MDA-MB-231 breast

CCOC(=O)c1cn2c(nc1=O)N[C@H]1CCCC[C@@H]12
not listed: RXF 393 renal | SR leukemia
> 100 µM: all other assays above

Cc1cc2c3c(nc4ccccc42)C(=O)c2ccccc2-c3n1
14.5 µM: KM12 colon
29 µM: SNB-75 CNS
37.2 µM: SR leukemia
24.1 µM: MOLT-4 leukemia
48.4 µM: BT-549 breast
27.3 µM: M14 melanoma
3.11 µM: MDA-MB-435
78.1 µM: MDA-MB-231 breast
3.1 µM: SK-MEL-5 melanoma
15.9 µM: NCI-H23 lung
38.5 µM: NCI/ADR-RES ovarian
not listed: MALME-3M melanoma | MDA-N
> 100 µM: all other assays above

Oc1ccc([I+]c2ccccc2)cc1O
85.3 µM: MOLT-4 leukemia
66.2 µM: MDA-MB-435
70.7 µM: KM12 colon
not listed: M14 melanoma | T-47D breast
> 100 µM: all other assays above
